Assay results published in patent publication US20260139254A1, “INTERFERING RNA FOR INHIBITING TOP1 GENE EXPRESSION AND USE THEREOF” (JENKEM TECHNOLOGY CO., LTD. (BEIJING), priority 2022, published 2026).

Tests used:
Assay type in all cases: cell-based, human
[1] = test system: TOP1 mRNA; test: Inhibitory effect of siTOP1 on TOP1 mRNA in A375 cells (Lipofectamine RNAiMAX transfection, Q-PCR); details: A375, siRNA 50 nM, 48 h after transfection; for Relative expression level of gene, mean value: Blank = 100.00, GAPDH reference
Protocol: • 1) On the day before transfection, A375 melanoma cells were seeded into a 24-well plate at 6×10^4 to 8×10^4 cells/well, the culture medium being 500 μL of DMEM containing 10% FBS and 1% Penicillin-Streptomycin, and the plate was placed in an incubator with 5% CO2 at 37° C. for 24 h to allow the cells to adhere to the wall. Three replicate wells were made for each group. • 2) On the day of transfection, the culture medium was changed to 450 μL of DMEM culture medium without antibiotics (containing 10% FBS). • 3) The siRNAs were diluted with 25 μL of Opti-MEM culture medium; the siNC (the siNC (reference: O Sordet et al., 2008) having the target sequence of 5′-TTCTCCGAACGTGTCACGT-3′ (SEQ ID NO: 46)) at the same concentration was the negative control group; Lipofectamine™ RNAiMAX (Lipo) transfection reagent was diluted with another 25 μL of Opti-MEM culture medium and left to stand at room temperature for 5 min; and the two dilutions were uniformly mixed and left to stand at room temperature for 5 min. • 4) 50 μL of the mixed solution described above was added to each well to obtain a final transfection volume of 500 μL. and the working concentration of the siRNA was 50 nM. • 5) After the transfection, the cells were cultured for 48 h and then collected.
• 1) RNA was extracted using an Eastep™ Super total RNA extraction kit; 300 μL of RNA lysis solution and 300 μL of RNA diluent were added; and the mixture was uniformly mixed and then transferred to a 1.5 mL centrifuge tube. • 2) The mixture was centrifuged at 14000 g for 5 min, and the supernatant was carefully pipetted into a new 1.5 mL centrifuge tube. • 3) A 0.5-fold volume of absolute ethanol was added, and the mixture was uniformly mixed by allowing the tube to be repeatedly upside down 15-20 times. Subsequently, the mixture was transferred to a centrifuge column and centrifuged at 12000 g for 1 min. The filtrate was discarded. • 4) 600 μL of RNA wash buffer was added, and the mixture was centrifuged at 12000 g for 1 min. The filtrate was discarded. • 5) 50 μL of DNase I incubation buffer was added, followed by DNA digestion at room temperature for 15 min. • 6) 600 μL of RNA wash buffer was added, the mixture was centrifuged at 12000 g for 1 min, and the filtrate was discarded. This procedure was repeated once. • 7) The mixture was centrifuged at 14000 g for 2 min to remove the residual RNA wash buffer, and then the centrifuge column was placed in a collection tube. • 8) An appropriate amount of RNase-free H2O was added, and the mixture was left to stand at room temperature for 12 min and centrifuged at 14000 g for 1 min. The collected RNA was preserved at −70° C. for later use.
• 1) The mass and concentration of the RNA were detected using NanoDrop™, and an RNA template was prepared as follows: RNase-free H2O was added to 1 μg of RNA to a volume of 10 μL; the mixture was placed at 70° C. for 5 min and then placed in an ice bath for 5 min for later use. • 2) A reaction system was established according to Table 2:
• 3) The reaction system described above was uniformly mixed and centrifuged to collect the liquid at the bottom of a tube, and the mixture was subjected to the procedures of 25° C. for 5 min, 42° C. for 60 min, and 72° C. for 15 min, thereby giving the cDNA product. • 4) A Q-PCR system was prepared according to Table 3, and the level of TOP1 gene was detected:
GAPDH was used as an endogenous reference, and the sequences of the primers used for detection are as follows: […]

[2] = test system: A375 melanoma cells; test: Inhibition of A375 cell proliferation by siTOP1 (CCK-8); details: A375, siRNA 50 nM, 72 h
Protocol: • 1) On the day before transfection, A375 melanoma cells were seeded into a 96-well plate at 2500-3000 cells/well, the culture medium being a total volume of 200 μL of DMEM culture medium containing 7.5% FBS and 1% Penicillin-Streptomycin, and the plate was placed in an incubator with 5% CO2 at 37° C. for 24 h to allow the cells to adhere to the wall. 5 replicate wells were made for each group. • 2) On the day of transfection, the culture medium was changed to 90 μL of reduced serum culture medium without antibiotics and containing 7.5% FBS. • 3) The siRNAs were diluted with an appropriate amount of Opti-MEM culture medium; Lipofectamine™ RNAiMAX (Lipo) transfection reagent was diluted with another appropriate amount of Opti-MEM culture medium and left to stand at room temperature for 5 min; and the two dilutions were uniformly mixed and left to stand at room temperature for 5 min. • 4) 10 μL of the mixed solution described above was added to each well to obtain a final transfection volume of 100 μL, and the working concentration of the siRNA was 50 nM. • 5) The cells were cultured in the incubator with 5% CO2 at 37° C. for 72 h.
After 72 h of transfection, 10 μL of CCK-8 solution was added to each well, and the cells were cultured in the incubator with 5% CO2 at 37° C. for another 4 h. The absorbance value at 450 nm was measured using a microplate reader. Cell viability was calculated according to the following formula: […]

[3] = test system: TOP1 mRNA; test: Inhibitory effects of modified sequences of siTOP1-1604 on TOP1 mRNA in PC-3 cells; details: PC-3, siRNA 50 nM, 48 h after transfection, Blank = 100.00
Protocol: PC-3 human prostate cancer cells were transfected with the modified siTOP1 according to the method in Example 2 at a siRNA working concentration of 50 nM. TOP1 mRNA levels were detected 48 h after the transfection. The control groups were Blank (Opti-MEM at the equal volume), Lipofectamine™ RNAiMAX (Lipo) transfection reagent, and the positive control unmodified siTOP-1604.

## siTOP1-267: siRNA targeting TOP1; target SEQ ID NO: 1, sense strand SEQ ID NO: 16, antisense strand SEQ ID NO: 31 (sense CAACGAUUCCCAGAUCGAAUU; antisense UUCGAUCUGGGAAUCGUUGUU; modified_base 20..21 OTHER; thymine)
[1]
  Relative expression level of gene, mean value: 21.85
[2]
  Cell viability (%), mean value: 58.27%
  Inhibition of A375 cell proliferation compared to Blank: about 42%

## siTOP1-628: siRNA targeting TOP1; target SEQ ID NO: 2, sense strand SEQ ID NO: 17, antisense strand SEQ ID NO: 32 (sense CCUCCUAAAGAGGAUAUAAUU; antisense UUAUAUCCUCUUUAGGAGGUU; modified_base 20..21 OTHER; thymine)
[1]
  Relative expression level of gene, mean value: 24.27

## siTOP1-896: siRNA targeting TOP1; target SEQ ID NO: 3, sense strand SEQ ID NO: 18, antisense strand SEQ ID NO: 33 (sense GGAAAUUCCUAGAACAUAAUU; antisense UUAUGUUCUAGGAAUUUCCUU; modified_base 20..21 OTHER; thymine)
[1]
  Relative expression level of gene, mean value: 13.05

## siTOP1-1261: siRNA targeting TOP1; target SEQ ID NO: 4, sense strand SEQ ID NO: 19, antisense strand SEQ ID NO: 34 (sense GGAUUCUGUAUUAUGGAUAUU; antisense UAUCCAUAAUACAGAAUCCUU; modified_base 20..21 OTHER; thymine)
[1]
  Relative expression level of gene, mean value: 17.75

## siTOP1-1282: siRNA targeting TOP1; target SEQ ID NO: 5, sense strand SEQ ID NO: 20, antisense strand SEQ ID NO: 35 (sense CACAAAGAGAGGAUUGCUAUU; antisense UAGCAAUCCUCUCUUUGUGUU; modified_base 20..21 OTHER; thymine)
[1]
  Inhibition of TOP1 expression: 93.4%
  Relative expression level of gene, mean value: 6.64

## siTOP1-1357: siRNA targeting TOP1; target SEQ ID NO: 6, sense strand SEQ ID NO: 21, antisense strand SEQ ID NO: 36 (sense GGCAUGCUGAAGAGACGAAUU; antisense UUCGUCUCUUCAGCAUGCCUU; modified_base 20..21 OTHER; thymine)
[1]
  Relative expression level of gene, mean value: 19.62

## siTOP1-1459: siRNA targeting TOP1; target SEQ ID NO: 7, sense strand SEQ ID NO: 22, antisense strand SEQ ID NO: 37 (sense CGGCAUGAUAACAAGGUUAUU; antisense UAACCUUGUUAUCAUGCCGUU; modified_base 20..21 OTHER; thymine)
[1]
  Inhibition of TOP1 expression: 90.1%
  Relative expression level of gene, mean value: 9.89

## siTOP1-1530: siRNA targeting TOP1; target SEQ ID NO: 8, sense strand SEQ ID NO: 23, antisense strand SEQ ID NO: 38 (sense GCUUAACCCUAGUUCACGAUU; antisense UCGUGAACUAGGGUUAAGCUU; modified_base 20..21 OTHER; thymine)
[1]
  Inhibition of TOP1 expression: 90.6%
  Relative expression level of gene, mean value: 9.44

## siTOP1-1604-m1: Methylation-modified siTOP1-1604; sense strand SEQ ID NO: 51, antisense strand SEQ ID NO: 52 (sense GUGUGGACAAGAUCCGGAATT; antisense UUCCGGAUCUUGUCCACACTT; DNA at T, 2'-O-methyl at CU, RNA at AG, backbone not given here)
[3]
  Relative expression level, mean value: 71.77

## siTOP1-1630: siRNA targeting TOP1; target SEQ ID NO: 10, sense strand SEQ ID NO: 25, antisense strand SEQ ID NO: 40 (sense CGAGAAGACUGGAAGUCCAUU; antisense UGGACUUCCAGUCUUCUCGUU; modified_base 20..21 OTHER; thymine)
[1]
  Relative expression level of gene, mean value: 17.34
[2]
  Cell viability (%), mean value: 43.84%
  Inhibition of A375 cell proliferation compared to Blank: about 56%

## siTOP1-1679: siRNA targeting TOP1; target SEQ ID NO: 11, sense strand SEQ ID NO: 26, antisense strand SEQ ID NO: 41 (sense CCCUGUACUUCAUCGACAAUU; antisense UUGUCGAUGAAGUACAGGGUU; modified_base 20..21 OTHER; thymine)
[1]
  Inhibition of TOP1 expression: 91.1%
  Relative expression level of gene, mean value: 8.86

## siTOP1-1776: siRNA targeting TOP1; target SEQ ID NO: 12, sense strand SEQ ID NO: 27, antisense strand SEQ ID NO: 42 (sense GCACAUCAAUCUACACCCAUU; antisense UGGGUGUAGAUUGAUGUGCUU; modified_base 20..21 OTHER; thymine)
[1]
  Inhibition of TOP1 expression: 92.6%
  Relative expression level of gene, mean value: 7.41

## siTOP1-2273: siRNA targeting TOP1; target SEQ ID NO: 13, sense strand SEQ ID NO: 28, antisense strand SEQ ID NO: 43 (sense AGGAUGCAAAGACGAAGAAUU; antisense UUCUUCGUCUUUGCAUCCUUU; modified_base 20..21 OTHER; thymine)
[1]
  Relative expression level of gene, mean value: 12.54

## siTOP1-2585: siRNA targeting TOP1; target SEQ ID NO: 14, sense strand SEQ ID NO: 29, antisense strand SEQ ID NO: 44 (sense GGUUUGGGAAAGAUGGAUAUU; antisense UAUCCAUCUUUCCCAAACCUU; modified_base 20..21 OTHER; thymine)
[1]
  Inhibition of TOP1 expression: 91.2%
  Relative expression level of gene, mean value: 8.84

## siTOP1-2898: siRNA targeting TOP1; target SEQ ID NO: 15, sense strand SEQ ID NO: 30, antisense strand SEQ ID NO: 45 (sense CGAUUAUAUUGGUGCGUUUUU; antisense AAACGCACCAAUAUAAUCGUU; modified_base 20..21 OTHER; thymine)
[1]
  Inhibition of TOP1 expression: 93.0%
  Relative expression level of gene, mean value: 7.05
